Here are results for two compounds from patent publication US20230416287A1, “Chemical Compounds” (GLAXOSMITHKLINE INTELLECTUAL PROPERTY DEVELOPMENT LIMITED, priority 2022, published 2023).

In general, solubility refers to how much of the substance goes into solution per volume. Low values mean a poorly soluble substance, high ones a readily soluble substance.

Data set [1] addresses T1, human Nav1.8 (Homo sapiens, UniProt Q9Y5Y9). Kind of data set: Manual patch-clamp electrophysiology assay, HEK293 cells overexpressing human Nav1.8. It counts as cell-based. Also noted: host or cells: HEK293. Conditions: manual whole-cell patch-clamp, single-pulse resting protocol, holding voltage -120 mV, step to 0 mV, room temperature. An excerpt:
The pharmacological activity of the Compounds of Example 4A and Example 5A (active parent compound of prodrug Example 4 and Example 5, respectively) was investigated by a patch-clamp electrophysiological method using a cellular system in which human Nav1.8 was overexpressed in HEK293 cells. Using this approach Nav1.8 can be activated by modulating the plasma membrane voltage and then channel function (Na^+ conduction) can be directly quantified. The ability of Nav1.8 inhibitors to block channel function in this system is a measurement of target binding and inhibition.
Cell preparation: HEK293 cells overexpressing human Nav1.8 (BIOCAT124824) were grown at 37° C., 5% C02 in medium (DMEM/F12 with 10% FBS, 2 mM GlutaMAX, 0.1 mM NEAA and […] G418, […] Hygromycin-B and […] Puromycin). […]
Voltage-clamp recording protocol: Compound effects were tested using single-pulse resting protocol in which cells were depolarized to 0 mV for 50 ms from a holding voltage of −120 mV. The peak current amplitudes were measured from the activated currents at 0 mV. […]
Nav1.8 current amplitudes measurement and normalization: Nav1.8 peak currents elicited by test pulse of 0 mV were measured and analysed by Clampfit 10.6 Software (Molecular Devices, USA). […]
Compound inhibition analysis: The compound inhibition effect was calculated using the following equation: […]
For orientation: In patch-clamp work, channel activity is measured electrically.

A short description of data set [2]: CAD kinetic solubility. It counts as physicochemical. To be noted: phosphate buffered saline (PBS), aqueous buffer, PBS pH 7.4, 1 hour equilibration at room temperature, from DMSO stock, HPLC-CAD. The method, then:
Kinetic solubility was measured using Charged Aerosol Detector (CAD). The aqueous kinetic solubility at pH 7.4 was determined by measuring the concentration of solute in solution after precipitation from DMSO stock solution. The DMSO stock solution was diluted 20-fold with phosphate buffered saline (PBS) pH 7.4 and the solubility of the compound was measured after 1 hour equilibration at room temperature by HPLC-CAD.

Data set [3] addresses T1, human Nav1.8. Nature of the data set: Nav1.8 inhibitory activity, QPatch 48 HTX electrophysiology in HEK293-Nav1.8 cells. It counts as cell-based. Also noted: expressed in transfected cells; host or cells: HEK293. Conditions: half inactivation state voltage protocol (V1/2), HEK293 cells expressing human Nav1.8, read-out: [Nav1.8] pIC50 (converted). The method, then: Biological Assay 1: Nav1.8 Inhibitory Activity Human embryonic kidney 293 cells (HEK293) expressing human Nav1.8, human Navol and human TREK1 (HEK293-Nav1.8) were grown in T150 cell culture flasks at 37° C., 5% CO2 incubator. HEK293-Nav1.8 were passaged every 2-3 days when confluency reached 80-90% in T150 cell culture flasks.
Pharmacological assessment of compounds of the invention was performed using the QPatch 48 HTX electrophysiological platform. HEK293-Nav1.8 cells were prepared on the day of use by removing culture media, washing in DPBS, adding Accutase (2 mL to cover the surface, aspirate 1 mL then 1-2 minutes at 37° C.) followed by addition of CHO-SFM II to stop the enzyme digestion and in order to obtain a suspension of 3×10^6 cell/mL.
Compounds of the invention were prepared in an extracellular solution of the following composition: NaCl (145 mM), KCl (4 mM), CaCl2) (2 mM), MgCl (2 mM), HEPES (1 mM), Glucose (10 mM), pH 7.4 with NaOH Osmolality 300 mOsM/L. An intracellular solution of the following composition was used: CsF (115 mM), CsCl (20 mm), NaCl (5 mM), EGTA (10 mM), HEPES (10 mM), Sucrose (20 mM), pH 7.2 with CsOH Osmolality 310 mOsm/L.
Utilizing the voltage-clamp mode in the QPatch 48 HTX system a half inactivation state voltage protocol (V1/2) was used to determine pharmacological activity of compounds of the invention at Nav1.8 ion channels. A V1/2 protocol was utilized with the following voltage steps: a holding voltage of −100 mV was established followed by a 20 ms voltage step to 0 mV (P1), followed by an inactivating voltage step at −46 mV for 8 seconds, followed by a step to −100 mV for 20 ms, before a 20 ms step to 0 mV (P2), then returned to the holding voltage of −100 mV. This voltage protocol was repeated at a frequency of every 15 seconds, the current magnitude was quantified at the P2 step throughout the recording. Inhibition of the measured current amplitude with compounds of the invention was analyzed by fitting a 4-6 points dose-response curve allowing determination of the fifty percent inhibition concentration (IC50). P2 currents were normalized according to measurements made at baseline (Baseline, vehicle only), after compound (Input, at each test concentration), and after positive reference compound (FullResponse, to achieve complete block), fit to the following equation: […]
To assess current run-down over the course of the experiment vehicle-only wells were utilized and the normalized current with vehicle-only (n. IVEH) was determined. To correct the compound response for run-down, the currents were corrected according to the following formula:
[formula] • Compound inhibition was fitted to the following Hill Equation to estimate the half maximal inhibition concentration (IC50)
[formula] • where Y is the normalized run-down corrected inhibition relative to the vehicle control (equivalent to n. IRD_Correct), C the test compound concentration, IC50 the concentration of test compound to inhibit the sodium current by 50%, and h the Hill coefficient.

Values after ≈ are worked out from the molar mass of the structure shown.

T1 sequence (Q9Y5Y9 whole entry): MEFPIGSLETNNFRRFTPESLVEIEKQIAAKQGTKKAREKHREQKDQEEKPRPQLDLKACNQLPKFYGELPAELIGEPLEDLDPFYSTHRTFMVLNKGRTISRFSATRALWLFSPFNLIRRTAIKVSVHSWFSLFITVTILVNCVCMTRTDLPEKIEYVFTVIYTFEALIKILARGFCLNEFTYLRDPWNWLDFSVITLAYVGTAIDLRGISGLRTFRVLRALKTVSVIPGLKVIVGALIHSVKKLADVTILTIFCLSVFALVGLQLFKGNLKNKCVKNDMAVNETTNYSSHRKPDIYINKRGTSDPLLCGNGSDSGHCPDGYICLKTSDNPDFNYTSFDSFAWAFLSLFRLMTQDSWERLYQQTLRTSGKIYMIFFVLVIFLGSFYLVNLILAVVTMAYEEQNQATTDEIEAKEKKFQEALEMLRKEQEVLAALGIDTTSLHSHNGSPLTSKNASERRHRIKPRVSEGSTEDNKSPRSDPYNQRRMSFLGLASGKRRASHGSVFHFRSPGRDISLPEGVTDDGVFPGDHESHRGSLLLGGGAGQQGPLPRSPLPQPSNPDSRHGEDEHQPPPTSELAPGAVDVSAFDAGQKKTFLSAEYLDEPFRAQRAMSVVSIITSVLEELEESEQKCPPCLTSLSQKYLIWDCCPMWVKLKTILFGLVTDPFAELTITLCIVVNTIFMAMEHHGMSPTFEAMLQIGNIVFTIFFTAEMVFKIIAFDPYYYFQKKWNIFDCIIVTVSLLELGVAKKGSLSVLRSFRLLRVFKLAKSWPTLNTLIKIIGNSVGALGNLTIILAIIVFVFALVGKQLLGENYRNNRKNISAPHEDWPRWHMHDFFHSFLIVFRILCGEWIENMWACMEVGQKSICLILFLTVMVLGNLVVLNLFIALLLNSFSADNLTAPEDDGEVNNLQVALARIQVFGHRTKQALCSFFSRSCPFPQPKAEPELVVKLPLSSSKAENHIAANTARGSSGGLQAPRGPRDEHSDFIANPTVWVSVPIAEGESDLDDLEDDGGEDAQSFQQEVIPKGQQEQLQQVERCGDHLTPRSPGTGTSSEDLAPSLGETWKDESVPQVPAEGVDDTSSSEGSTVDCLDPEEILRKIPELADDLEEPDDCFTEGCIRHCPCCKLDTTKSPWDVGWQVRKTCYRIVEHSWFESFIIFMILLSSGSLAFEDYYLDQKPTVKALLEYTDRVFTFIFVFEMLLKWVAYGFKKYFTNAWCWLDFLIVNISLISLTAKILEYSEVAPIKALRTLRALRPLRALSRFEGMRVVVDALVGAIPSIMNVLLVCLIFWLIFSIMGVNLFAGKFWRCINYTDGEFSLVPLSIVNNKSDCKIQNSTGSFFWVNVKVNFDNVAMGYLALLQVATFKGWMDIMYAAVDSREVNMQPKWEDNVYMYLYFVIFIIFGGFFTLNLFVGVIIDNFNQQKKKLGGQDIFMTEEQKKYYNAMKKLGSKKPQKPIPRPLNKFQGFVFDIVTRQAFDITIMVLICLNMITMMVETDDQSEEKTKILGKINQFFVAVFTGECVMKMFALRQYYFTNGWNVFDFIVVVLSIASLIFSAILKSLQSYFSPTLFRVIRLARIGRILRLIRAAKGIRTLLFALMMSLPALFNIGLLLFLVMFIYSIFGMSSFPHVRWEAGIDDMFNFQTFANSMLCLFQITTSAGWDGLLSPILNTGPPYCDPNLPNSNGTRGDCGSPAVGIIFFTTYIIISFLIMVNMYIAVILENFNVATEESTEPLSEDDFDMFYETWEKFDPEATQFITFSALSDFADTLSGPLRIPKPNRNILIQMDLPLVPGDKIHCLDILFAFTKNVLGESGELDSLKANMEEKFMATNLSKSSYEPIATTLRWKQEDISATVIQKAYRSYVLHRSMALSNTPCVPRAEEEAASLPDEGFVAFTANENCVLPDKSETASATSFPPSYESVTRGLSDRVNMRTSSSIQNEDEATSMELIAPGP

Regarding `Cc1[nH]c(=O)ccc1N1CN(c2ccc(F)c(F)c2C)c2cc(Cl)c(F)cc2C1=O` [Example 4A, 7-chloro-1-(3,4-difluoro-2-methylphenyl)-6-fluoro-3-(2-methyl-6-oxo-1,6-dihydropyridin-3-yl)-2,3-dihydroquinazolin-4(1H)-one], the IC50 was 0.8 ± 0.2 nM in data set [1] and 5.01 nM in data set [3]. In addition, in data set [2], the concentration in solution (solubility at 1 h) was 44 µg/mL (≈ 101 µM).

On to `Cc1cc(F)ccc1N1CN(c2ccc(=O)[nH]c2C)C(=O)c2cc(F)c(Cl)cc21` [Example 5A, 7-chloro-6-fluoro-1-(4-fluoro-2-methylphenyl)-3-(2-methyl-6-oxo-1,6-dihydropyridin-3-yl)-2,3-dihydroquinazolin-4(1H)-one], for which the IC50 is 2.2 nM in data set [1] and 5.01 nM in data set [3]. The solubility at 1 h in data set [2] came out at 55 µg/mL (≈ 132 µM).
